Here are results for 3 compounds from US20220008388A1 (Certego Therapeutics Inc., priority 2018, published 2022).

Entries after “also recorded” stand apart in the source; their conditions may differ. Where two headings read alike, the source gives them in different places.

The test system of data set [1] is d-amphetamine-induced hyperactivity. The data set is described as follows: d-amphetamine-induced hyperlocomotion, rodent model of mania. In kind it is in vivo. The conditions noted are these: mice, 20 min before d-amphetamine 3.5 mg/kg.
The conditions of data set [2]: cited from earlier work.
Data set [3] relates to immediate early gene c-fos expression in the brain. The conditions noted are these: mouse. As to the method:
(A) Mice were treated with a drug or vehicle solution for the control group using either intraperitoneal (i.p.), per oral (p.o.). subcutaneous (s.c.), intramuscular (i.m.) or intravenous (i.v.) delivery.
(C) After the aforementioned c-fos induction period, the mice were sacrificed and the c-fos induction was visualized using whole-brain immunostaining. The brains were then chemically cleared and imaged by light-sheet fluorescent microscopy (LSFM).
(D) The whole-brain scans are depicted as serial section datasets with an XYZ resolution of about 4×4×5 microns.
(E) The c-fos-positive cells were detected in these datasets using custom algorithms.
(F) The whole-brain distribution of the detected c-fos-positive cells was then represented in 3D as a spatial map of centroid points in the 3D space of the mouse brain.
(G) This 3D map distribution was registered to a reference mouse brain and spatially voxelized using overlapping 150-micron sphere voxels.
This method called “pharmacomapping” (implemented as a fee for service by CRO Certerra, Inc. Farmingdale, N.Y.) is based on a proprietary and largely automated drug-screening platform that comprises whole-brain detection of drug-evoked neuronal activation represented by drug-evoked expression of the immediate early gene (IEG) c-fos. Until now, the detection of c-fos as a marker of brain activation required time-consuming, laborious methods such as in situ hybridization or immunohistochemistry in brain tissue sections, followed by mounting the sections on microscopic slides, manual imaging, and largely visual quantification. Nevertheless, over the last two decades a number of studies used these methods to test drug-evoked activity in the mouse or rat brain for various psychoactive medications, including antipsychotics, antidepressants, stimulants and anxiolytics (Engber et al., 1998; Salminen et al., 1996; SEMBA et al., 1996; Slattery et al., 2005; Sumner et al., 2004).
In contrast to the older methods, the pharmacomapping method uses largely automated and standardized whole-brain immunostaining and brain clearing together with advanced microscopy (light-sheet fluorescence microscopy, LSFM), computational (e.g. machine learning) and statistical methods (FIG. 1; see, for example, the published U.S. Patent Application No. 2014/0297199, the content of which is incorporated by reference herein in its entirety). The first generation of this platform used serial two-photon tomography (STPT) as a method for imaging and c-fos-GFP mice expressing green fluorescent protein (GFP) under the control of the c-fos promoter (see, e.g., published U.S. Patent Application No. 2014/0297199, the content of which is incorporated by reference herein in its entirety).
The second generation of the pharmacomapping platform currently employed by Certerra uses whole-brain immunostaining and clearing procedure named iDISCO+ and whole-brain imaging by light-sheet fluorescence microscopy to detect c-fos-positive neurons in wild type mice (Renier et al., 2016).

For data set [4] the following is noted: cited from earlier work. The source holds these as a separate data set.
For data set [5] the following is noted: female mother rats; cited from earlier work.

As for `Oc1noc2c1CCNC2` [gaboxadol, 4,5,6,7-tetrahydroisoxazolo (5,4-c) pyridin-3-ol], the “moderation of d-amphetamine-induced locomotion (ambulatory counts)” value in data set [1] (gaboxadol 3 mg/kg, Anova p=0.007, Fisher's PLSD p=0.6) was “only modestly”. In addition, in data set [2] (human doses equivalent to the mouse 6 mg/kg dose), the “adverse side-effects in clinical trials” value is “no adverse side-effects”. Also, the “effects in sleep onset and sleep maintenance” value in data set [2] (insomnia, three-month efficacy study) is reported as “failed to show significant effects”. The “brain activation (c-fos induction)” value in data set [3] (gaboxadol 3 mg/kg alone (HED about 15 mg)) is “did not elicit any detectable c-fos signaling activity; also recorded: neither gaboxadol at 3 mg/kg nor lithium at 85 mg/kg alone evoked any brain activation; also recorded: nor gaboxadol at 3 mg/kg (middle row; human equivalent dose about 15 mg) induced any brain activation on their own”; in data set [3] (gaboxadol 6 mg/kg alone (HED about 30 mg)), “moderate brain activation”; in data set [3] (gaboxadol 20 mg/kg (HED about 100 mg)), “broad cortical activation”.
As for `O=C([O-])[O-].[Li+].[Li+]` [lithium, lithium carbonate], the “moderation of d-amphetamine-induced locomotion (ambulatory counts)” value in data set [1] (lithium 14.1 mg/kg) is given as “had no behavioral effect; also recorded: not moderated”. In addition, the “people who stopped taking lithium because of adverse events” value in data set [4] (BD patients, epidemiological study (Öhlund et al., 2018)) is given as 62%. The “patients showing good long-term efficacy” value in data set [4] (BD patients, long-term maintenance (Scott et al., 2017)) was “approximately 30%”. Further, the “lithium concentration in drinking water with anti-suicide effect” value in data set [4] (drinking water) is reported as “less than 150 μg/L”. Moreover, in data set [4] (human), the “serum lithium concentration associated with mild toxicity” value is 1.2 to 2.5 mmol/L. The “serum lithium concentration that can be life-threatening” value in data set [4] (human) is reported as “greater than 3.5 mmol/L”. Besides, the “serum lithium concentration for maintenance treatment” value in data set [4] (maintenance of bipolar disorder) was 0.6 to 1.0 mmol/L. In addition, the “state of alertness compared to control rats fed placebo” value in data set [5] is recorded as “low”. For the same compound, the “brain activation (c-fos induction)” value in data set [3] (lithium 85 mg/kg alone (HED about 425 mg)) is on record as “did not elicit any detectable c-fos signaling activity; also recorded: neither gaboxadol at 3 mg/kg nor lithium at 85 mg/kg alone evoked any brain activation; also recorded: neither lithium at 85 mg/kg (top row; human equivalent dose about 425 mg), nor gaboxadol at 3 mg/kg (middle row; human equivalent dose about 15 mg) induced any brain activation on their own”; in data set [3] (lithium 120 mg/kg (HED about 600 mg)), “modest to moderate activation of a few structures”; in data set [3] (lithium 150 mg/kg alone (HED about 750 mg)) it was “modest to moderate activation of a few structures; also recorded: moderate brain activation”; in data set [3] (lithium 200 mg/kg alone (HED about 1000 mg)), “considerably broader activation; also recorded: moderate brain activation”; in data set [3] (lithium 300 mg/kg (HED about 1500 mg)), “prominently activated; also recorded: closely matched that of gaboxadol at 20 mg/kg; also recorded: broad activation pattern”; in data set [3] (lithium 400 mg/kg as printed) it was “considerably broader activation”.
For the compound `[6Li]` [lithium-6], the “state of alertness compared to control rats fed placebo” value in data set [5] is “very high”.
